ChEMBL document CHEMBL1201862, “PubChem BioAssay data set” (2004)
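Results reflect a 48-hour exposure of cells in 96-well plates to compound at five concentrations. GI50 marks 50% less growth.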 The source made the active and inactive calls. No stated cut-off is given here; in the data, active = GI50 up to about 1.1 µM and inactive = higher.

Key:
Experiment in all cases: NCI anticancer screen, dose series, 48 h
K562 = system: K562
LOX IMVI = system: LOX IMVI
OVCAR-4 = system: OVCAR-4
RPMI-8226 = system: RPMI-8226
SF-539 = system: SF-539
SNB-75 = system: SNB-75
CAKI-1 = system: CAKI-1
SK-MEL-5 = system: SK-MEL-5
EKVX = system: EKVX
MCF7 = system: MCF7
M14 = system: M14
HOP-62 = system: HOP-62
MDA-MB-231 = system: MDA-MB-231
HT-29 = system: HT-29
OVCAR-5 = system: OVCAR-5
SK-OV-3 = system: SK-OV-3
A549 = system: A549
UACC-257 = system: UACC-257
OVCAR-8 = system: OVCAR-8
NCI-H522 = system: NCI-H522

SMILES	GI50 (K562)	GI50 (LOX IMVI)	GI50 (OVCAR-4)	GI50 (RPMI-8226)	GI50 (SF-539)	GI50 (SNB-75)	GI50 (CAKI-1)	GI50 (SK-MEL-5)	GI50 (EKVX)	GI50 (MCF7)	GI50 (M14)	GI50 (HOP-62)	GI50 (MDA-MB-231)	GI50 (HT-29)	GI50 (OVCAR-5)	GI50 (SK-OV-3)	GI50 (A549)	GI50 (UACC-257)	GI50 (OVCAR-8)	GI50 (NCI-H522)
COc1cc(C2c3cc4c(cc3OC(NCc3ccccc3)C2C)OCO4)cc(OC)c1OC (stereo not given)	0.305 µM (active)	0.551 µM (active)	0.644 µM (active)	0.381 µM (active)	0.273 µM (active)	0.177 µM (active)	0.288 µM (active)	0.261 µM (active)	2.56 µM (inactive)	0.439 µM (active)	0.442 µM (active)	0.553 µM (active)	0.303 µM (active)	0.337 µM (active)	1.09 µM (active)	0.476 µM (active)	0.631 µM (active)	6.92 µM (inactive)	0.482 µM (active)	0.339 µM (active)
CC[C@@]1(O)C[C@H](OC2CC(N(C)C)C(O)C(C)O2)c2c(O)c3c(c(O)c2[C@H]1OC1CC(N(C)C)C(O)C(C)O1)C(=O)c1cccc(O)c1C3=O (stereo not given in full)	0.0267 µM (active)	0.0208 µM (active)	0.0409 µM (active)	0.0409 µM (active)	0.0531 µM (active)	0.0195 µM (active)	0.0195 µM (active)	0.0323 µM (active)	0.0984 µM (active)	0.0321 µM (active)	0.0357 µM (active)	0.0404 µM (active)	0.0341 µM (active)	0.0224 µM (active)	0.0838 µM (active)	0.0397 µM (active)	0.0306 µM (active)	0.146 µM (active)	0.0274 µM (active)	0.0144 µM (active)
COc1cc([N+](=O)[O-])c(S(=O)(=O)O)cc1N	> 100 µM (inactive)	> 100 µM (inactive)	> 100 µM (inactive)	> 100 µM (inactive)	> 100 µM (inactive)	> 100 µM (inactive)	> 100 µM (inactive)	> 100 µM (inactive)	> 100 µM (inactive)	> 100 µM (inactive)	> 100 µM (inactive)	> 100 µM (inactive)	> 100 µM (inactive)	> 100 µM (inactive)	> 100 µM (inactive)	> 100 µM (inactive)	> 100 µM (inactive)	> 100 µM (inactive)	> 100 µM (inactive)	> 100 µM (inactive)
Nc1ccc(S(=O)(=O)Nc2nc3ccccc3nc2N2CCCCCC2)cc1	17.6 µM (inactive)	17.3 µM (inactive)	17.1 µM (inactive)	14.6 µM (inactive)	18.5 µM (inactive)	50.8 µM (inactive)	26.4 µM (inactive)	16.1 µM (inactive)	40.3 µM (inactive)	38.9 µM (inactive)	37.2 µM (inactive)	20 µM (inactive)	26.9 µM (inactive)	33.3 µM (inactive)	38.5 µM (inactive)	33.6 µM (inactive)	27.7 µM (inactive)	32.9 µM (inactive)	31.9 µM (inactive)	29 µM (inactive)
CCN1CCC(O)(c2ccc([N+](=O)[O-])cc2)C(C(=O)c2ccc([N+](=O)[O-])cc2)C1 (stereo not given)	36.8 µM (inactive)	21.6 µM (inactive)	25.9 µM (inactive)	3.33 µM (inactive)	14.3 µM (inactive)	34.5 µM (inactive)	22.3 µM (inactive)	18.1 µM (inactive)	18.9 µM (inactive)	15.4 µM (inactive)	18.1 µM (inactive)	77.3 µM (inactive)	25.8 µM (inactive)	32.1 µM (inactive)	52.6 µM (inactive)	> 100 µM (inactive)	69 µM (inactive)	17.9 µM (inactive)	30.1 µM (inactive)	3.33 µM (inactive)
C/C(=N\Nc1ccccc1)C(CN(C)C)C(c1ccccc1)c1c(O)c2ccccc2oc1=O (stereo not given)	> 100 µM (inactive)	> 100 µM (inactive)	> 100 µM (inactive)	> 66.7 µM (inactive)	> 100 µM (inactive)	> 77.3 µM (inactive)	> 100 µM (inactive)	> 100 µM (inactive)	> 100 µM (inactive)	> 100 µM (inactive)	> 100 µM (inactive)	> 100 µM (inactive)	> 100 µM (inactive)	> 100 µM (inactive)	> 100 µM (inactive)	> 100 µM (inactive)	> 100 µM (inactive)	> 100 µM (inactive)	> 100 µM (inactive)	> 100 µM (inactive)
Cc1noc(/N=C2\C=C(O)C(=O)c3ccccc32)c1C	0.206 µM (active)	2.14 µM (inactive)	19.5 µM (inactive)	9.64 µM (inactive)	1.04 µM (active)	3.5 µM (inactive)	5 µM (inactive)	0.676 µM (active)	37.8 µM (inactive)	0.495 µM (active)	0.656 µM (active)	2.18 µM (inactive)	11.6 µM (inactive)	17.6 µM (inactive)	9.27 µM (inactive)	8.3 µM (inactive)	5.31 µM (inactive)	4.19 µM (inactive)	7.38 µM (inactive)	0.274 µM (active)
CCOC(=O)n1c2ccccc2c2c(O)c(OC)c3c(c21)C(=O)NC3=O	40.9 µM (inactive)	15.2 µM (inactive)	44.6 µM (inactive)	58.5 µM (inactive)	57.5 µM (inactive)	37.8 µM (inactive)	20.7 µM (inactive)	37.1 µM (inactive)	> 100 µM (inactive)	54.3 µM (inactive)	25.8 µM (inactive)	23 µM (inactive)	20.6 µM (inactive)	24 µM (inactive)	50.9 µM (inactive)	34.6 µM (inactive)	38.5 µM (inactive)	45.8 µM (inactive)	31.8 µM (inactive)	22.6 µM (inactive)
COc1ccc2[nH]c3c4c(ccc3c2c1)C(=O)C=CC4=O	1.53 µM (inactive)	9.31 µM (inactive)	15 µM (inactive)	2.08 µM (inactive)	15.7 µM (inactive)	18.8 µM (inactive)	9.25 µM (inactive)	18.9 µM (inactive)	16.4 µM (inactive)	10.8 µM (inactive)	10 µM (inactive)	51.2 µM (inactive)	17.4 µM (inactive)	20.3 µM (inactive)	20.4 µM (inactive)	43.4 µM (inactive)	28.6 µM (inactive)	10 µM (inactive)	5.22 µM (inactive)	1.74 µM (inactive)
NS(=O)(=O)c1ccc(NC2(C(=O)O)CCCC2)cc1	> 100 µM (inactive)	> 100 µM (inactive)	> 100 µM (inactive)	> 100 µM (inactive)	> 100 µM (inactive)	> 100 µM (inactive)	> 100 µM (inactive)	> 100 µM (inactive)	> 100 µM (inactive)	> 100 µM (inactive)	> 100 µM (inactive)	> 100 µM (inactive)	> 100 µM (inactive)	> 100 µM (inactive)	> 100 µM (inactive)	> 100 µM (inactive)	> 100 µM (inactive)	> 100 µM (inactive)	> 100 µM (inactive)	> 100 µM (inactive)
COc1cc(/C=C2\C[C@H]3[C@@H]4CC=C5C[C@@H](O)CC[C@]5(C)[C@H]4CC[C@]3(C)[C@H]2O)cc(OC)c1OC	5.97 µM (inactive)	8.53 µM (inactive)	7.45 µM (inactive)	4.92 µM (inactive)	14.3 µM (inactive)	9.06 µM (inactive)	20.2 µM (inactive)	6.28 µM (inactive)	34 µM (inactive)	8.34 µM (inactive)	20.7 µM (inactive)	10.8 µM (inactive)	11.4 µM (inactive)	11.1 µM (inactive)	26.3 µM (inactive)	25.5 µM (inactive)	9.79 µM (inactive)	14.8 µM (inactive)	19 µM (inactive)	19.1 µM (inactive)
N/C(=N\N=C\c1cc2ccccc2s1)c1cnccn1	3.85 µM (inactive)	> 100 µM (inactive)	> 100 µM (inactive)	> 100 µM (inactive)	> 100 µM (inactive)	29.3 µM (inactive)	> 100 µM (inactive)	> 100 µM (inactive)	> 100 µM (inactive)	5.24 µM (inactive)	> 100 µM (inactive)	> 100 µM (inactive)	82.6 µM (inactive)	> 100 µM (inactive)	> 100 µM (inactive)	> 100 µM (inactive)	> 100 µM (inactive)	> 100 µM (inactive)	78.2 µM (inactive)	> 100 µM (inactive)
c1ccc2cc(-c3cc(-c4cc(-c5ccc6ccccc6c5)on4)no3)ccc2c1	> 100 µM (inactive)	> 100 µM (inactive)	> 100 µM (inactive)	> 100 µM (inactive)	> 100 µM (inactive)	64.7 µM (inactive)	> 100 µM (inactive)	> 100 µM (inactive)	11.7 µM (inactive)	> 100 µM (inactive)	> 100 µM (inactive)	> 100 µM (inactive)	> 100 µM (inactive)	> 100 µM (inactive)	> 100 µM (inactive)	> 100 µM (inactive)	> 100 µM (inactive)	> 100 µM (inactive)	> 100 µM (inactive)	> 100 µM (inactive)
O=C(CCC1OCCO1)Nc1cc(NCc2ccccc2)ccc1OCc1ccccc1	28.9 µM (inactive)	33.7 µM (inactive)	31.8 µM (inactive)	20.1 µM (inactive)	30.4 µM (inactive)	32.5 µM (inactive)	20.7 µM (inactive)	18.4 µM (inactive)	21.2 µM (inactive)	33.6 µM (inactive)	59.6 µM (inactive)	> 100 µM (inactive)	42 µM (inactive)	27.7 µM (inactive)	46.9 µM (inactive)	68.5 µM (inactive)	30.6 µM (inactive)	20.2 µM (inactive)	18.9 µM (inactive)	23.7 µM (inactive)
